Data from ChEMBL document CHEMBL1201862, “PubChem BioAssay data set” (2004).
Active and inactive are the calls of the source.

Assays:
cells [1] = format: functional, cell-based
cells [2] = format: functional, cell-based; remark: listed apart in the source
[3] = target: T1, Beta-adrenergic receptor kinase 1 (Homo sapiens, UniProt P25098); test: aptamer displacement from bead-bound GRK2 – biochemical, cherry pick 1, bead flow cytometry, dose response (AID 504500)
T1 sequence (P25098 whole entry): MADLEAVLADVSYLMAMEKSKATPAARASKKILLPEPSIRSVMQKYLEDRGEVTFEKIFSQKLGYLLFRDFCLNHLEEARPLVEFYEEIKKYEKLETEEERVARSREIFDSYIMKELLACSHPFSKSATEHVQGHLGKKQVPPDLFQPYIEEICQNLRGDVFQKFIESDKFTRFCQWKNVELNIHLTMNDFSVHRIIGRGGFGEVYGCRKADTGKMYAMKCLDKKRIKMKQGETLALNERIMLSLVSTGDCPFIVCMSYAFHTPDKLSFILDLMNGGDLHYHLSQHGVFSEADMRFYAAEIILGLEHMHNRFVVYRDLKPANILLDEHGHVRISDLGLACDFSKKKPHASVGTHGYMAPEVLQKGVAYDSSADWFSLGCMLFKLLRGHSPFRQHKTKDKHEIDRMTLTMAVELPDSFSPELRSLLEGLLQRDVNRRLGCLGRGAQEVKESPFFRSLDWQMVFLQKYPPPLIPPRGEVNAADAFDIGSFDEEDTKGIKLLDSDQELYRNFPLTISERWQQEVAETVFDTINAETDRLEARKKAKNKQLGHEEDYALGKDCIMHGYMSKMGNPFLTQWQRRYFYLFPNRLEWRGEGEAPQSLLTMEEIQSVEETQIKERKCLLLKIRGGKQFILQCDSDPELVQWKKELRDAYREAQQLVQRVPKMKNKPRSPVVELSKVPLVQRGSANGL

[4] = target: T1, Beta-adrenergic receptor kinase 1; test: GRK2 inhibitors displacing RNA aptamer, dose response, biochemical, flow cytometry beads, FAM-aptamer, powder set 1 (AID 588720)
[5] = target: T2, Carboxy-terminal domain RNA polymerase II polypeptide A small phosphatase 1 (Homo sapiens, UniProt Q9GZU7); test: inhibitors of CTDSP1, concentration-response testing, biochemical assay, absorbance-based, actives from ultra-high-throughput screening (AID 540297); format: functional
T2 sequence (Q9GZU7 whole entry): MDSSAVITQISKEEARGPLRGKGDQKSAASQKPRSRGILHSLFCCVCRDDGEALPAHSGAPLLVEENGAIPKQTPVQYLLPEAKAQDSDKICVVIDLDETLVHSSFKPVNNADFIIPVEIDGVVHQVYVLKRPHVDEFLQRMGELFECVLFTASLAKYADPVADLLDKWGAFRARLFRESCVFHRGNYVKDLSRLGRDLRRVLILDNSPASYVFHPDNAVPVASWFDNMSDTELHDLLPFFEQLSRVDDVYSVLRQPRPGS

[6] = target: Cyclin-dependent kinase 2 (Homo sapiens, UniProt P24941); test: CDK2 kinase inhibitors, off-target check, dose response, selectivity assay for Dyrk1A inhibitor project, biochemical, cherry-picked samples (AID 602127)
[7] = target: Dual specificity protein kinase CLK1 (Homo sapiens, UniProt P49759); test: CLK1 kinase inhibitors, off-target check, dose response, selectivity assay for Dyrk1A inhibitor project, biochemical, cherry-picked samples (AID 588811)
Dual specificity protein kinase CLK1, sequence (P49759 whole entry): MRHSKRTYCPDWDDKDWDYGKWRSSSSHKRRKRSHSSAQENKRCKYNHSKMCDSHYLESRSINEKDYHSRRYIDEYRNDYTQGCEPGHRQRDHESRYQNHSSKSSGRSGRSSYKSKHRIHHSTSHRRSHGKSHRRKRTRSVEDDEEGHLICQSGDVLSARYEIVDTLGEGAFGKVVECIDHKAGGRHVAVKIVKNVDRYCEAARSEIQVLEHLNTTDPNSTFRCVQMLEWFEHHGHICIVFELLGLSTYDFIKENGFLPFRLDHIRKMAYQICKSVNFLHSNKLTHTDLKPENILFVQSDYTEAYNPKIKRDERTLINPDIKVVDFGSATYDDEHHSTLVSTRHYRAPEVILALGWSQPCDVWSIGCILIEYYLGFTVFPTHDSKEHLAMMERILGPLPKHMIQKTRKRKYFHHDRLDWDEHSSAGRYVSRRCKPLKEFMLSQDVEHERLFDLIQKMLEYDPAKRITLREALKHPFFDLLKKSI

Vero [8] = test: cells; format: functional, cell-based; conditions: Chlorocebus sabaeus
Vero [9] = test: cells; format: functional; conditions: Chlorocebus sabaeus
[10] = target: T3, Short transient receptor potential channel 4 (Mus musculus, UniProt Q9QUQ5); test: mouse TRPC4 channel activators, dose response, cell-based, HEK293 TRPC4/mu-opioid, Fluo-4 calcium (AID 434937); format: functional
T3 sequence (Q9QUQ5 whole entry): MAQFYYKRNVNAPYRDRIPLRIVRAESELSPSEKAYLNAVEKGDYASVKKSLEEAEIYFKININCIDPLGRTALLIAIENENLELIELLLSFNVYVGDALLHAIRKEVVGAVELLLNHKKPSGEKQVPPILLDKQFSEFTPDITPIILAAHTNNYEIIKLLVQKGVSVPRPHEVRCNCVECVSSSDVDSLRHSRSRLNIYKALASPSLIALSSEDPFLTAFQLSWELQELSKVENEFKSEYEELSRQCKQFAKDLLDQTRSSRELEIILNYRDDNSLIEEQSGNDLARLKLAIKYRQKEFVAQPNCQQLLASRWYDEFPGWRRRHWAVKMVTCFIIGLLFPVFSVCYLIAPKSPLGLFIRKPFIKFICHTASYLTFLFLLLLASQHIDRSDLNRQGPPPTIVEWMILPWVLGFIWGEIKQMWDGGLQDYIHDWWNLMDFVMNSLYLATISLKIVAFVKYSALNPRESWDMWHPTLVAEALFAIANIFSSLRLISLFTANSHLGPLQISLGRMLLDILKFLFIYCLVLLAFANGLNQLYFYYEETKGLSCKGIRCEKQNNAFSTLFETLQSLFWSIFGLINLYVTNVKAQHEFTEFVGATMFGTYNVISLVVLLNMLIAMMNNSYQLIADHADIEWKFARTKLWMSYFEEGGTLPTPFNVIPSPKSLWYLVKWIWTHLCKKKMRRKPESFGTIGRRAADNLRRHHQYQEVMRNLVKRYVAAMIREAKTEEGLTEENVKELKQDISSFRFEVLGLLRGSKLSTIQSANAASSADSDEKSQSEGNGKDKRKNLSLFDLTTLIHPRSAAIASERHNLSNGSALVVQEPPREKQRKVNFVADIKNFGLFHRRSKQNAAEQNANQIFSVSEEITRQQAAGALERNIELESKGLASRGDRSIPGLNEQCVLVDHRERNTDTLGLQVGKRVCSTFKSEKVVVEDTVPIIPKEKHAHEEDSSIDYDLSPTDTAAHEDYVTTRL

[11] = target: Delta-type opioid receptor (Homo sapiens, UniProt P41143); test: Counterscreen for agonists of heterodimerization of the mu 1 (OPRM1) and delta 1 (OPRD1) opioid receptors: Luminescence-based cell-based high throughput dose response assay to identify agonists of OPRD1 homodimerization. [Related pubchem assays (depositor defined):AID504326, AID504355, AID504692, AID504904, AID504905]; format: functional
Delta-type opioid receptor, sequence (P41143 whole entry): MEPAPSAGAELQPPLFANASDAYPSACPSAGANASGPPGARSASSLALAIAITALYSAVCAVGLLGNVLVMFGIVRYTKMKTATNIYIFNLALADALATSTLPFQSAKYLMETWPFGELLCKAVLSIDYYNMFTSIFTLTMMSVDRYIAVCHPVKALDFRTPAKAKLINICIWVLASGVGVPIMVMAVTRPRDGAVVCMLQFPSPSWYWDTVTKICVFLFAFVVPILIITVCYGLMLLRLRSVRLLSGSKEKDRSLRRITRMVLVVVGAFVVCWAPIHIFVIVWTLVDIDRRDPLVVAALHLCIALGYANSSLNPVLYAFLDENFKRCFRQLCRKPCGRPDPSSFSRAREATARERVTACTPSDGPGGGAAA

Mu-type opioid receptor = Mu-type opioid receptor (Homo sapiens, UniProt P35372); test: Counterscreen for agonists of heterodimerization of the mu 1 (OPRM1) and delta 1 (OPRD1) opioid receptors: Luminescence-based cell-based high throughput dose response assay to identify agonists of OPRM1 homodimerization.; format: functional;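 further: U2OS cells expressing OPRM1 and beta-arrestin as split beta-galactosidase partners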
Mu-type opioid receptor, sequence (P35372 whole entry): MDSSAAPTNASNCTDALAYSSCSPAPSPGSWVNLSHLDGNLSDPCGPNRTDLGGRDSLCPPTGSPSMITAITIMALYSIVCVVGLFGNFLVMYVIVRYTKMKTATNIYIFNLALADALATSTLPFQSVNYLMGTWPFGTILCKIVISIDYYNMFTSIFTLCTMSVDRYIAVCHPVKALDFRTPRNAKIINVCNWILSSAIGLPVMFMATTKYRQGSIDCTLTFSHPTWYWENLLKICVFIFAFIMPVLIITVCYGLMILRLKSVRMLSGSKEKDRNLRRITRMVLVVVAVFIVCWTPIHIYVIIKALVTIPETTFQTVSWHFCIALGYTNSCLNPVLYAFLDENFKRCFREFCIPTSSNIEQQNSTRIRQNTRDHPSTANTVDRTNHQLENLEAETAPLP

[12] = target: 5-hydroxytryptamine receptor 5A (Homo sapiens, UniProt P47898); test: Counterscreen for agonists of OPRM1-OPRD1 heterodimerization: luminescence-based cell-based high throughput dose response assay to identify agonists of 5-hydroxytryptamine (serotonin) 5A receptor (HTR5A). [Related pubchem assays (depositor defined):AID504326, AID504355, AID504692, AID504904, AID504905]; format: functional
5-hydroxytryptamine receptor 5A, sequence (P47898 whole entry): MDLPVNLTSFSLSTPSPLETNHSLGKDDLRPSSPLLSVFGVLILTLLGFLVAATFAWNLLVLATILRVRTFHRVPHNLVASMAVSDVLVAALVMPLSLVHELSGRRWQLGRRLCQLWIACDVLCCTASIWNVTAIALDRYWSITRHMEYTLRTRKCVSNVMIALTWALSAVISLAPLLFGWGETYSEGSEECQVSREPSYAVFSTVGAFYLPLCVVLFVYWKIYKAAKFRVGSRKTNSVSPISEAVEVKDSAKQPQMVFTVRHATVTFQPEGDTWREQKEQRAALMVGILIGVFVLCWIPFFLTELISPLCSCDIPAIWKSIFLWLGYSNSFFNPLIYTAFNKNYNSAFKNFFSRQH

Cytochrome P450 2C9 = Cytochrome P450 2C9 (Homo sapiens, UniProt P11712)
Cytochrome P450 2C9, sequence (P11712 whole entry): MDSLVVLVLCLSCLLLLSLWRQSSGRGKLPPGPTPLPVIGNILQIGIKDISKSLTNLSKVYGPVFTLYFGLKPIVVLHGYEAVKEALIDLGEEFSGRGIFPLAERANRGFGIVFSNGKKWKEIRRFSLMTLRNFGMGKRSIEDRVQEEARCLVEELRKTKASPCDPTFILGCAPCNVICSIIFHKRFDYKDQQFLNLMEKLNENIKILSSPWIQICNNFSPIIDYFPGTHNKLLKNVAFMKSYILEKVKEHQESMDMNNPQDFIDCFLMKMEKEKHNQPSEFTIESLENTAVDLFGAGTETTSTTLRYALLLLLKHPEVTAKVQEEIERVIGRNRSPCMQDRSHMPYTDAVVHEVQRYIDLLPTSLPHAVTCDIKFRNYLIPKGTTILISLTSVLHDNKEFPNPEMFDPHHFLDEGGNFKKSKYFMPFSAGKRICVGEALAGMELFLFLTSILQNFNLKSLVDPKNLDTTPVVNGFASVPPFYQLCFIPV

[13] = target: Voltage-gated inwardly rectifying potassium channel KCNH2 (Homo sapiens, UniProt Q12809); conditions: Potency;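 further: confirmatory quantitative high-throughput screen measuring inhibition of hERG channel activity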
Voltage-gated inwardly rectifying potassium channel KCNH2, sequence (Q12809 whole entry): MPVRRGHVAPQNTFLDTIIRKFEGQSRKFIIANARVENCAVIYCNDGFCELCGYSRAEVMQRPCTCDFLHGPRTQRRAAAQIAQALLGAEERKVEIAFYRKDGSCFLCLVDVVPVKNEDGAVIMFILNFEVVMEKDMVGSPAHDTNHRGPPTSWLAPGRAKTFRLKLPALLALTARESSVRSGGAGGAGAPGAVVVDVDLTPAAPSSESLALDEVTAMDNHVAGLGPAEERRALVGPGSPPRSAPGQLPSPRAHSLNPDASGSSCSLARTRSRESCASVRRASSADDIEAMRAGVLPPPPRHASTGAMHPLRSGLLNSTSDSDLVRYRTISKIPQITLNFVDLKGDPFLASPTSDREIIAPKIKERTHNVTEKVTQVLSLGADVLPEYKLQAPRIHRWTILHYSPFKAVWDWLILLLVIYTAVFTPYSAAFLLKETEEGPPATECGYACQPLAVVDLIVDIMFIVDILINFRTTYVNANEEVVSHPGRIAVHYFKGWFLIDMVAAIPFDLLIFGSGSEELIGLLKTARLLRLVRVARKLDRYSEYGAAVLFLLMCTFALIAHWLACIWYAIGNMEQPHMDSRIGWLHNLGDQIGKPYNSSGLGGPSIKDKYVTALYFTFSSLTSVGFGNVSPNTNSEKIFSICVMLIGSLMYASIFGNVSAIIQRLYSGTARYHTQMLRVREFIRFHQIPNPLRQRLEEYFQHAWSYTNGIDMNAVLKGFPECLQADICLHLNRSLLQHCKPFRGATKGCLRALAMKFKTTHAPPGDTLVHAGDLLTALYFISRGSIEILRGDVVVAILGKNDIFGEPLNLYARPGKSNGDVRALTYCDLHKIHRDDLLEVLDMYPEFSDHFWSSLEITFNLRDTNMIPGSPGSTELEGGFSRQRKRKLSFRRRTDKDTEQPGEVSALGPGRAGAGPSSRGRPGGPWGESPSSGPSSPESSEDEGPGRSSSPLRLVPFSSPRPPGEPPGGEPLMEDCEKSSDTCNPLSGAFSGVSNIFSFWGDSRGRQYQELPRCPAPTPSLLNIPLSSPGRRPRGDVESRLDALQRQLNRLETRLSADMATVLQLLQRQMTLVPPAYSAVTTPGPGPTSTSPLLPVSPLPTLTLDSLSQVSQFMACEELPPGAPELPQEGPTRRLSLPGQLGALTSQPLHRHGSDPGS

For `O=C(CSc1nc2ccccc2c(=O)n1-c1ccccc1)NC(=O)CN1CCCC1=O`, the EC50 (cells [1]) was > 350 µM (not active), the EC50 (cells [2]) was > 350 µM (not active) and the EC50 [3] was 9.42 µM (active). The EC50 [4] was 2.96 µM (active) and the IC50 [5] was 8.75 µM (active).
With `Cc1ccsc1CN(C)c1ncnc2ccc(-c3ccoc3)cc12` the AC50 [6] was 7.77 µM (active) and the AC50 [7] was 0.0138 µM (active).
In the case of `COc1ccc(S(=O)(=O)N2CCOC23CCN(C(=O)c2ccc(Cl)cc2Cl)CC3)cc1`, the IC50 (Vero [8]) is reported as > 25 µM (active) and the CC50 (Vero [9]) is reported as > 25 µM (active).
For `COc1ccc(C(CNC(=O)CCc2ccsc2)N(C)C)cc1` (stereo not given), the EC50 [10] was 0.0147 µM (active), the EC50 [11] was 25.6 µM (inactive) and the EC50 (Mu-type opioid receptor) was 1.42 µM (active). The EC50 [12] was > 92.4 µM (inactive).
With `CC(C)COC(=O)OCN1C(=O)CN(CCN2CC(=O)N(COC(=O)OCC(C)C)C(=O)C2)CC1=O` [SOBUZOXANE] the AC50 (Cytochrome P450 2C9) was 39.8 µM (inconclusive) and the AC50 [13] was 35.5 µM (inconclusive).
